Activity calls are given as the source filed them. The rule behind the calls is not given here. Where a SMILES comes first, the peptide text is derived from it. The star is where a group is joined. MeOSuc = COC(=O)CCC(=O)*; Cbz = O=C(OCc1ccccc1)*; CH2Cl = ClC*
How the values were obtained:
PC-12 [1] = assay: Protection against KCN-induced necrosis in […] cells assessed as reduction in KCN-induced cell death at 10 to 300 uM incubated for 5 hrs by LDH release assay; assay type: functional, cell-based; details: dose 10-300 µM
U-937 [2] = assay: Inhibition anti-Fas antibody-induced elastase like activity in human U-937 cells at 100 uM by substrate gel electrophoresis; assay type: cell-based
U-937 [3] = assay: Inhibition oligomycin-induced elastase like activity in human U-937 cells at 100 uM by substrate gel electrophoresis; assay type: cell-based
PC-12 [4] = assay: Protection against KCN-induced necrosis in […] cells assessed as reduction in KCN-induced cell death at 20 to 100 uM incubated for 5 hrs by LDH release assay; assay type: functional, cell-based; details: dose 20-100 µM
Mus musculus [5] = assay: Protection against necrosis in Balb/c mouse model of model of myocardial infarction/reperfusion assessed as reduction in infarct size at 30 mg/kg, iv followed by ischemia and reperfusion and subsequent second dosing at 30 mg/kg, iv and measured after 6 hrs post reperfusion by TTC staining based analysis; assay type: functional; design: scale not given: the % may be the effect or the level left; details: dose 60 mg/kg
[6] = Toxicity in sham control C57BL/6J mouse at 100 ug, icv; details: in vivo, icv_or_intrathecal, dose 100 µg
Mus musculus [7] = assay: Protection against necrosis in C57BL/6J mouse model of traumatic brain injury assessed as decrease in necrotic space in brains at 100 ug, icv measured 24 hrs post injury by TTC staining based analysis; assay type: functional; design: scale not given: the % may be the effect or the level left; details: dose 100 µg
Mus musculus [8] = assay: Protection against necrosis in C57BL/6J mouse model of traumatic brain injury assessed as decrease in neuronal damage in brain at 100 ug, icv measured 1 hr post injury by neurological severity score based analysis; assay type: functional, organism-based; details: dose 100.0 µg
[9] = (§1) Inhibition KCN-induced elastase like activity in human U-937 cells at 0.01 to 100 uM using substrate MAAPV; assay type: cell-based
U-937 [10] = assay: as §1; assay type: cell-based; details: dose 0.01-100 µM
U-937 [11] = assay: Inhibition KCN-induced elastase like activity in human U-937 cells using substrate MAAPV; assay type: cell-based
Mus musculus [12] = assay: Protection against necrosis in C57BL/6J mouse model of paracetamol-induced […] assessed as reduction in liver AST levels at 10 mg/kg, ip dosed 4 hrs after paracetamol injection and measured 24 hrs post paracetamol injection by; assay type: functional, organism-based; details: time 28.0 hrs
Mus musculus [13] = assay: Protection against necrosis in C57BL/6J mouse model of paracetamol-induced […] assessed as reduction in liver ALT levels at 10 mg/kg, ip dosed 4 hrs after paracetamol injection and measured 24 hrs post paracetamol injection by; assay type: functional, organism-based; details: time 28.0 hrs
Mus musculus [14] = assay: Protection against necrosis in C57BL/6J mouse model of paracetamol-induced […] assessed as reduction in liver GPT levels at 10 mg/kg, ip dosed 4 hrs after paracetamol injection and measured 24 hrs post paracetamol injection by; assay type: functional, organism-based; details: time 28.0 hrs
Mus musculus [15] = assay: Protection against necrosis in C57BL/6J mouse model of paracetamol-induced […] assessed as reduction in liver GOT levels at 30 mg/kg, ip dosed 4 hrs after paracetamol injection and measured 24 hrs post paracetamol injection by; assay type: functional; design: scale not given: the % may be the effect or the level left; details: time 28 hrs
Mus musculus [16] = assay: Protection against necrosis in C57BL/6J mouse model of paracetamol-induced […] assessed as reduction in liver AST levels at 30 mg/kg, ip dosed 4 hrs after paracetamol injection and measured 24 hrs post paracetamol injection by; assay type: functional; design: scale not given: the % may be the effect or the level left; details: time 28 hrs
Mus musculus [17] = assay: Protection against necrosis in C57BL/6J mouse model of paracetamol-induced […] assessed as reduction in liver GPT levels at 30 mg/kg, ip dosed 4 hrs after paracetamol injection and measured 24 hrs post paracetamol injection by; assay type: functional; design: scale not given: the % may be the effect or the level left; details: time 28 hrs
Mus musculus [18] = assay: Protection against necrosis in C57BL/6J mouse model of paracetamol-induced […] assessed as reduction in liver ALT levels at 30 mg/kg, ip dosed 4 hrs after paracetamol injection and measured 24 hrs post paracetamol injection by; assay type: functional; design: scale not given: the % may be the effect or the level left; details: time 28 hrs
Mus musculus [19] = assay: Protection against necrosis in C57BL/6J mouse model of paracetamol-induced […] assessed as reduction in liver GOT levels at 10 mg/kg, ip dosed 4 hrs after paracetamol injection and measured 24 hrs post paracetamol injection by; assay type: functional, organism-based; details: time 28.0 hrs

CC(C)C[C@H](NC(=O)N[C@H](C(=O)N[C@@H](CCC(N)=O)C(=O)N[C@@H](C)C=O)C1CCNC(=N)N1)C(=O)O (some centres undefined)
Activity (PC-12 [1]): inactive | inhibition (U-937 [2]): Active | inhibition (U-937 [3]): Active

CC(C)(C)C(=O)Oc1ccc(S(=O)(=O)Nc2ccccc2C(=O)NCC(=O)O)cc1
Activity (PC-12 [4]): Dose-dependent effect

CCC(=O)N1CCN=C1N1CCN(C)CC1
Activity (Mus musculus [5]): 30%

COC(=O)CCC(=O)N[C@@H](C)C(=O)N[C@@H](C)C(=O)N1CCC[C@H]1C(=O)N[C@H](C(=O)CCl)C(C)C (MeOSuc-AAPV-CH2Cl)
Activity [6]: Non-Toxic | Activity (Mus musculus [7]): 50% | Activity (PC-12 [1]): Dose-dependent effect | Activity (Mus musculus [8]): Active | IC50 [9]: 2.74 µM | inhibition (U-937 [10]): Dose-dependent effect

O=C[C@H](Cc1ccc(O)cc1)NC(=O)[C@H](Cc1ccccc1)NC(=O)OCc1ccccc1 (Cbz-Phe-Tyr-aldehyde)
inhibition (U-937 [11]): inactive

CCOC(=O)[C@H]1O[C@@H]1C(=O)N[C@@H](CC(C)C)C(=O)NCCC(C)C
inhibition (U-937 [11]): inactive

O=C(c1csc(N2CCCCC2)n1)N1CCCC1
Activity (Mus musculus [12]): Active | Activity (Mus musculus [13]): Active | Activity (Mus musculus [14]): Active | Activity (Mus musculus [15]): 100% | Activity (Mus musculus [16]): 100% | Activity (Mus musculus [17]): 100% | Activity (Mus musculus [18]): 100% | Activity (Mus musculus [19]): Active

CN1C(=O)Cc2ccc(-c3ccc(C[C@@H](C#N)NC(=O)[C@H]4N[C@@H]5CC[C@H]4C5)c(F)c3)cc21
Activity (PC-12 [1]): Dose-dependent effect

Cc1ccc(S(=O)(=O)N[C@@H](Cc2ccccc2)C(=O)CCl)cc1
inhibition (U-937 [2]): inactive | inhibition (U-937 [3]): inactive

Reference: ChEMBL document CHEMBL4706679, “Targeting Necrosis: Elastase-like Protease Inhibitors Curtail Necrotic Cell Death Both In Vitro and in Three In Vivo Disease Models” (J Med Chem, 2021)
